Assay results from patent US20150057465A1, “CONTROL OF GROWTH-INDUCTION-PRODUCTION PHASES” (OPX BIOTECHNOLOGIES, INC., priority 2013, published 2015).
Entries after “also recorded” stand apart in the source; their conditions may differ. Read-outs that look alike come from different tables or passages of the source.

B1: rhtA: chemical exporter from E. coli characterized for homoserine transport; mutant rhtA(P2S), SEQ ID NO. 30, 31, overexpressed (protein)
chain: MSGSLRKMPVWLPIVILLVAMASIQGGASLAKSLFPLVGAPGVTALRLALGTLILIAFFKPWRLRFAKEQRLPLLFYGVSLGGMNYLFYLSIQTVPLGIAVALEFTGPLAVALFSSRRPVDFVWVVLAVLGLWFLLPLGQDVSHVDLTGCALALGAGACWAIYILSGQRAGAEHGPATVAIGSLIAALIFVPIGALQAGEALWHWSVIPLGLAVAILSTALPYSLEMIALTRLPTRTFGTLMSMEPALAAVSGMIFLGETLTPIQLLALGAIIAASMGSTLTVRKESKIKELDIN
notes: chemical exporter from E. coli characterized for homoserine transport; 30, 31, overexpressed

What was measured:
E. coli ACCase = E. coli ACCase (Escherichia coli, UniProt P0A9Q5+P0ABD5+P0ABD8+P24182); settings: for effect of salt on ACCase activity: E. coli ACCase, dose-dependent studies, FIG. 4; for decrease of the activity of the ACCase enzyme: relative to control (FIG. 4)
Description: Levels of greater than 0.66M (60 g/L) are expected to be present for commercially viable commercial production of 3-HP.
Each gene was amplified by PCRs with Pfu Ultra II HS using the manufacturer's instructions, and the PCR products were purified using the Zymo PCR Cleanup kit. Concentrations of products were measured using the Nanodrop spectophotometer. The Gibson Assembly kit (NEB) was used to construct plasmids expressing the ACCase subunit genes as directed by the manufacturer. The effect of NH4-3-HP and NH4Cl on H. elongata ACCase was tested and compared to the E. coli ACCase.

H. elongata ACCase = test: Salt inhibition of H. elongata ACCase activity; assay type: biochemical, Halomonas elongata; settings: ACCase from the halophile H. elongata, compared to E. coli ACCase, FIG. 4
Description: Accordingly, the genes encoding the accA, accB, accC, accD of H. elongata described in Table 1 were synthesized for expression in E. coli using codons optimized for this organism and supplied individually on pUC57 plasmids without promoters. Synthetic operons comprising the subunits were assembled using the Gibson assembly method.
Concentrations of products were measured using the Nanodrop spectophotometer.

E. coli strains = test: Growth inhibition of E. coli strains grown in the presence of 3-HP; assay type: cell-based
3HP titer = test: 1 L fermentation with overexpression of rhtA exporter, 3HP titer; assay type: cell-based, E. coli; settings: compared to control plasmid without rhtA, FIG. 7
Description: A known chemical exporter from E. coli that has been previously characterized for homoserine transport, rhtA, was evaluated for increased production of 3-HP. A mutant version of the exporter, rhtA(P2S) (SEQ ID NO. 30 nucleic acid, SEQ ID NO. 31 protein) was synthesized behind the PtpiA promoter and inserted into the pTRC-PyibD-MCR plasmid behind a terminator using the Gibson Assemply kit (NEB) according to manufacturer's instructions. The effects of overexpression of rhtA were evaluated in 1 L fermentation compared to the control plasmid without rhtA. […] Construction of plasmids expressing another putative transporter, ydcO (SEQ ID NO. 32 nucleic acid, SEQ ID NO. 33 protein) is carried out in the same manner.

[1] = salts of 3-HP levels near 0.66M

Sequence of E. coli ACCase (P0A9Q5 whole entry): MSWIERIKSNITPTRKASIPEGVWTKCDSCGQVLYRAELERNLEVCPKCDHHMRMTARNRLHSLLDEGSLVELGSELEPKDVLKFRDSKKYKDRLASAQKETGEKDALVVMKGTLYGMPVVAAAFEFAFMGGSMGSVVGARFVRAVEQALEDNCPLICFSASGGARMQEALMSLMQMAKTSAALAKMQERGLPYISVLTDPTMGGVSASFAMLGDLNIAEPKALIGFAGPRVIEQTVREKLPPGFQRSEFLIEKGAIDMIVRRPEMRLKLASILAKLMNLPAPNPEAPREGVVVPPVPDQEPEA
Sequence of E. coli ACCase (P0ABD5 whole entry): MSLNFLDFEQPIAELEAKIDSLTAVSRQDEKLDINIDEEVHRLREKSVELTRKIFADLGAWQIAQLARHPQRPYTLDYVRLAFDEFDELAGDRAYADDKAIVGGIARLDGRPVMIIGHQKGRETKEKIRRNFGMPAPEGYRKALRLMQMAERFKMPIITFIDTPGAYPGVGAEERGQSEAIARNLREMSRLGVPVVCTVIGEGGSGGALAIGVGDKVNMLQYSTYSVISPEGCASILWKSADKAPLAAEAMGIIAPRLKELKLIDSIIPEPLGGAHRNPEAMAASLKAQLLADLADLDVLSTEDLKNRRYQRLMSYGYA

Molecule	effect of salt on ACCase activity (E. coli ACCase)	decrease of the activity of the ACCase enzyme (E. coli ACCase; [1])	decrease of the activity of the ACCase enzyme (E. coli ACCase; salt levels near 0.44M)	effect of salt on ACCase activity (H. elongata ACCase)	other results
O=C([O-])CCO.[Na+] [Na-3-HP]	inhibitory effects	approximately 80%			
Cl.N [NH4Cl]	significantly inhibited		approximately 80%	less affected	
N.O=C(O)CCO [NH4-3-HP]	significantly inhibited	approximately 80%		less affected	
O=C(O)CCO [3-HP, 3-hydroxypropionic acid]					3-HP level at which growth inhibition was demonstrated (E. coli strains): ≥ 20 g/L
[Cl-].[Na+] [NaCl]	inhibitory effects		approximately 80%		
B1					3HP titer (3HP titer): improved production of 3-HP; also recorded: significant improvement in 3HP titer
